Laboratory results reported in the supplement of paper PMC11451515.

System: NOMO1
Test: cell viability relative to DMSO control; higher = less cytotoxic
Settings: 48 h
Outline: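 Leukemia cells (NOMO1 or SEM, 500 cells/well; P12-Ichikawa, 1000 cells/well) were seeded in 5 μl in 1536-well plates after at least four passages of adaptation to each medium. They received library compounds in DMSO by pin dosing, 11 threefold points from 47 μM to 0.79 nM. Luminescence with CellTiter-Glo One was read after 48 h at 37°C. Viability is stated per plate relative to DMSO wells, with cell-free wells as background.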

[1] = HPLM + 10% dialyzed FBS, 0.000781 µM
[2] = HPLM + 10% dialyzed FBS, 0.00234 µM
[3] = HPLM + 10% dialyzed FBS, 0.00702 µM
[4] = HPLM + 10% dialyzed FBS, 0.0211 µM
[5] = HPLM + 10% dialyzed FBS, 0.0632 µM
[6] = HPLM + 10% dialyzed FBS, 0.19 µM
[7] = HPLM + 10% dialyzed FBS, 0.569 µM
[8] = HPLM + 10% dialyzed FBS, 1.71 µM
[9] = HPLM + 10% dialyzed FBS, 5.12 µM
[10] = HPLM + 10% dialyzed FBS, 15.4 µM
[11] = HPLM + 10% dialyzed FBS, 46.1 µM
[12] = RPMI 5 mM glucose + 10% FBS, 0.000781 µM
[13] = RPMI 5 mM glucose + 10% FBS, 0.00234 µM
[14] = RPMI 5 mM glucose + 10% FBS, 0.00702 µM
[15] = RPMI 5 mM glucose + 10% FBS, 0.0211 µM
[16] = RPMI 5 mM glucose + 10% FBS, 0.0632 µM
[17] = RPMI 5 mM glucose + 10% FBS, 0.19 µM
[18] = RPMI 5 mM glucose + 10% FBS, 0.569 µM
[19] = RPMI 5 mM glucose + 10% FBS, 1.71 µM
[20] = RPMI 5 mM glucose + 10% FBS, 5.12 µM
[21] = RPMI 5 mM glucose + 10% FBS, 15.4 µM
[22] = RPMI 5 mM glucose + 10% FBS, 46.1 µM
[23] = RPMI 5 mM glucose + 10% dialyzed FBS, 0.000781 µM
[24] = RPMI 5 mM glucose + 10% dialyzed FBS, 0.00234 µM
[25] = RPMI 5 mM glucose + 10% dialyzed FBS, 0.00702 µM
[26] = RPMI 5 mM glucose + 10% dialyzed FBS, 0.0211 µM
[27] = RPMI 5 mM glucose + 10% dialyzed FBS, 0.0632 µM
[28] = RPMI 5 mM glucose + 10% dialyzed FBS, 0.19 µM
[29] = RPMI 5 mM glucose + 10% dialyzed FBS, 0.569 µM
[30] = RPMI 5 mM glucose + 10% dialyzed FBS, 1.71 µM
[31] = RPMI 5 mM glucose + 10% dialyzed FBS, 5.12 µM
[32] = RPMI 5 mM glucose + 10% dialyzed FBS, 15.4 µM
[33] = RPMI 5 mM glucose + 10% dialyzed FBS, 46.1 µM

Row | SMILES | cell viability [1] [%] | cell viability [2] [%] | cell viability [3] [%] | cell viability [4] [%] | cell viability [5] [%] | cell viability [6] [%] | cell viability [7] [%] | cell viability [8] [%] | cell viability [9] [%] | cell viability [10] [%] | cell viability [11] [%] | cell viability [12] [%] | cell viability [13] [%] | cell viability [14] [%] | cell viability [15] [%] | cell viability [16] [%] | cell viability [17] [%] | cell viability [18] [%] | cell viability [19] [%] | cell viability [20] [%] | cell viability [21] [%] | cell viability [22] [%] | cell viability [23] [%] | cell viability [24] [%] | cell viability [25] [%] | cell viability [26] [%] | cell viability [27] [%] | cell viability [28] [%] | cell viability [29] [%] | cell viability [30] [%] | cell viability [31] [%] | cell viability [32] [%] | cell viability [33] [%]
1 | CC(=O)SC[C@@H](C)C(=O)N1CCC[C@H]1C(=O)N[C@@H](Cc1ccccc1)C(=O)O | 117 | 119 | 95.1 | 105 | 115 | 114 | 97.2 | 101 | 111 | 110 | 89.3 | 93.5 | 106 | 105 | 88.7 | 94.1 | 100 | 94.4 | 94.5 | 85.3 | 82.5 | 92.1 | 103 | 99.5 | 107 | 106 | 112 | 89.5 | 106 | 97.3 | 103 | 106 | 91.5
2 | CN(C)CCCC1(c2ccc(F)cc2)OCc2cc(C#N)ccc21 (stereo unspecified) | 107 | 103 | 111 | 90.7 | 100 | 94 | 91.8 | 106 | 68.4 | 88.8 | 74 | 88.5 | 101 | 102 | 88.9 | 98.5 | 89.5 | 91.4 | 106 | 57.9 | 79.9 | 84.4 | 87.5 | 90 | 96.4 | 85 | 90.4 | 84.5 | 77.4 | 82.2 | 55.3 | 81 | 72.6
3 | CNc1nc(-c2ccc3c(N)n[nH]c3c2)cc(N2C[C@@H](C(=O)NC3CCCCC3)CC[C@H]2C)n1 | 76.9 | 82.3 | 79.8 | 95 | 94.8 | 89.2 | 68.2 | 64.5 | 55.9 | 64.2 | 17.7 | 73.9 | 78 | 76.2 | 80.4 | 89.3 | 80.3 | 77.1 | 84.2 | 69.9 | 73.8 | 19 | 75.9 | 91.8 | 79.2 | 92.5 | 90.2 | 85.5 | 70.3 | 70.8 | 68.2 | 68.2 | 29.7
4 | O=C(O)c1cc(O)c2c(c1)C(=O)c1cccc(O)c1C2=O | 113 | 111 | 127 | 107 | 127 | 117 | 127 | 125 | 113 | 104 | 94.3 | 115 | 120 | 116 | 121 | 114 | 101 | 103 | 110 | 107 | 99.5 | 104 | 110 | 119 | 102 | 121 | 112 | 107 | 112 | 119 | 119 | 95.4 | 96.2
5 | C[C@@H]1CC[C@@]2(CC[C@]3(C)\C(=C/C[C@@H]4[C@@]5(C)CC[C@H](O)C(C)(C)[C@@H]5CC[C@@]34C)[C@@H]2[C@H]1C)C(O)=O | 111 | 120 | 116 | 113 | 111 | 127 | 130 | 113 | 113 | 111 | 119 | 113 | 108 | 120 | 106 | 112 | 108 | 98.7 | 104 | 102 | 112 | 106 | 104 | 120 | 117 | 125 | 124 | 113 | 121 | 112 | 114 | 106 | 114
6 | C/C1=C2/[N]3[Co+]456([OH])<-[N]7=C1[C@@H](CCC(N)=O)C(C)(C)/C7=C/C1=[N]->4C(=C(/C)C4=[N]->5[C@@](C)([C@H]3[C@H](CC(N)=O)[C@@]2(C)CCC(=O)NC[C@@H](C)OP(=O)([O-])O[C@H]2[C@@H](O)[C@@H](n3c[n]->6c5cc(C)c(C)cc53)O[C@@H]2CO)[C@@](C)(CC(N)=O)[C@@H]4CCC(N)=O)/[C@@](C)(CC(N)=O)[C@@H]1CCC(N)=O | 94.9 | 110 | 102 | 103 | 113 | 105 | 100 | 77.2 | 87.9 | 80.4 | 70.6 | 95.1 | 95 | 87.9 | 95.4 | 90.5 | 90.3 | 97.3 | 82.2 | 81.4 | 89 | 75.5 | 95.6 | 95.8 | 101 | 94.6 | 90.7 | 97.7 | 97.5 | 91.8 | 86.1 | 89.9 | 72.7
7 | NCCCC(N)(C(=O)O)C(F)F (stereo unspecified) |  |  |  |  |  |  |  |  |  |  |  | 123 | 137 | 122 | 125 | 132 | 111 | 125 | 120 | 109 | 107 | 95.1 | 121 | 112 | 115 | 113 | 126 | 112 | 108 | 125 | 100 | 111 | 90.1
8 | COc1cc(NCc2ccc3nc(N)nc(N)c3c2C)cc(OC)c1OC | 90.2 | 91.7 | 98.9 | 95.1 | 93.5 | 98.4 | 89.5 | 44.4 | 36 | 34.2 | 15.9 | 79.3 | 88 | 80.9 | 85.7 | 84.7 | 89.3 | 93.5 | 83.2 | 99.6 | 86.9 | 9.99 | 87.2 | 88.5 | 86.2 | 91.1 | 91 | 107 | 94.5 | 81.1 | 68.8 | 37.9 | 16.6
9 | OC(=O)\C1=C\N(C2CC2)C3=CC(=C(F)C=C3C1=O)N4CCNCC4 | 108 | 117 | 119 | 129 | 113 | 127 | 118 | 134 | 64.4 | 47.5 | 22.5 | 116 | 126 | 104 | 118 | 119 | 113 | 128 | 118 | 90 | 75.1 | 23.5 | 112 | 132 | 119 | 116 | 120 | 122 | 117 | 123 | 88.1 | 63.5 | 33.9
10 | OC1=CC=C(C=C1)C/2=C/C3=C(OC2)C=C(O)C=C3 | 118 | 123 | 114 | 111 | 118 | 111 | 100 | 82.8 | 60.9 | 26.3 | 5.22 | 97.2 | 108 | 117 | 99.8 | 108 | 108 | 104 | 93.3 | 89.4 | 23.9 | 9.27 | 108 | 118 | 110 | 109 | 101 | 105 | 111 | 106 | 96.8 | 33.1 | 14.9
11 | CO[C@H]1CCC(O[C@H]2C[C@H]([C@]3(C)CC[C@]4(C[C@H](O)[C@@H](C)[C@@H]([C@@H](C)/C=C(\C)C(=O)[C@H](C)C[C@H](C)C(=O)[O-])O4)O3)O[C@]3(O[C@@H]([C@H]4O[C@@](O)(CO)[C@H](C)C[C@@H]4C)C[C@@H]3C)[C@@H]2C)O[C@@H]1C (stereo partly specified) | 112 | 124 | 136 | 109 | 134 | 101 | 118 | 88.8 | 84.4 | 63.7 | 55.1 | 123 | 121 | 113 | 122 | 145 | 121 | 124 | 118 | 111 | 97.6 | 67.7 | 112 | 122 | 133 | 118 | 111 | 114 | 132 | 106 | 48.9 | 78.2 | 64.2
12 | Oc1ccc(OCc2ccccc2)cc1 | 108 | 131 | 116 | 106 | 132 | 108 | 102 | 107 | 105 | 79.7 | 48.6 | 119 | 113 | 127 | 120 | 114 | 127 | 105 | 104 | 101 | 110 | 87.8 | 110 | 116 | 105 | 112 | 108 | 106 | 114 | 113 | 116 | 89.9 | 60.7
13 | COc1ccc(CCC(=O)c2c(O)cc(O[C@@H]3O[C@H](CO)[C@@H](O)[C@H](O)[C@H]3O[C@@H]3O[C@@H](C)[C@H](O)[C@@H](O)[C@H]3O)cc2O)cc1O | 105 | 138 | 124 | 122 | 120 | 124 | 117 | 102 | 91.2 | 36.1 | 42.7 | 118 | 140 | 114 | 123 | 119 | 119 | 111 | 107 | 114 | 45.2 | 20.7 | 118 | 121 | 119 | 119 | 135 | 116 | 117 | 113 | 110 | 40.2 | 34.4
14 | NC1=NC(=O)N2CC12 (stereo unspecified) | 82 | 94.5 | 104 | 102 | 107 | 99.3 | 104 | 73.9 | 43.5 | 4.8 | 4.55 | 87.7 | 94.5 | 94.2 | 87.8 | 92.2 | 90.1 | 85.3 | 82.7 | 56.2 | 4.92 | 4.24 | 88.3 | 76.1 | 87.8 | 93.4 | 104 | 101 | 106 | 64.7 | 55.9 | 3.18 | 4.25
